Results on 6 molecules are retold here after patent US10821115B2, “Compounds that inhibit Mcl-1 protein” (priority 2017, dated 2020).

The subject of experiment [1] is human multiple myeloma cell line, OPM-2. The experiment in a line: Cell viability assay (OPM-2 10 FBS), CellTiter-Glo. It counts as cell-based. Particulars: Homo sapiens, OPM-2, 16 h. The gist of the method:
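IC50 values come from 4-parameter logistic fits of luminescence signals reflecting cell viability. Treatment lasted 16 h at 37 °C in complete medium with 10% FBS, starting from 3000 cells/well.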

In experiment [2] the target is recombinant human Mcl-1 (residues 171-327) / Bim interaction (Homo sapiens (Human), UniProt Q07820). The experiment in a line: biochemical. The format is binding. Particulars: read-out: Mcl-1 HTRF IC50. For orientation: Time-resolved FRET reads energy transfer from a long-lived donor to a nearby acceptor.
recombinant human Mcl-1 (residues 171-327) / Bim interaction, sequence (Q07820 171-327): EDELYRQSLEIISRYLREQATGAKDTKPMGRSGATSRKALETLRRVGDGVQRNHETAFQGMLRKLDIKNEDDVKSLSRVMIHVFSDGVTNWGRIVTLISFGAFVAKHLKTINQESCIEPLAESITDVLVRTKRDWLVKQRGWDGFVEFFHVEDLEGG
Where [3] appears, read: read-out: OPM-2 10% FBS IC50 IP, OPM-2 cells, 10% FBS, 16 h, CellTiter-Glo.
The mark [4] stands for this setting: TR-FRET, Mcl-1(171-327) / biotin-Bim (51-76).
The mark [5] stands for this setting: read-out: OPM-2 10% FBS IC50 IP, OPM-2 cells, 10% FBS, 16 h incubation.
Setting [6] is: 0.1 nM Mcl-1(171-327), 0.05 nM biotin-Bim (51-76).

Where two headings read alike, the source gives them in different places.

Turning to `CNC(=O)C[C@]1(OC)/C=C/C[C@H](C)[C@@H](C)S(=O)(=O)NC(=O)c2ccc3c(c2)N(C[C@@H]2CC[C@H]21)C[C@@]1(CCCc2cc(Cl)ccc21)CO3` [Example 100009, 2-((1 S,3′R,6′R,7′S,8′E,11′S, 12′R)-6-chloro-7′-methoxy-11′,12′-dimethyl-13′,13′-dioxido-15′-oxo-3,4-dihydro-2H-spiro[naphthalene-1,22′-[20]oxa[13]thia[1,14]diazatetracyclo[14.7.2.0-3,6˜.0˜19,24˜]pentacosa[8,16,18,24]tetraen]-7′-yl)-N-methylacetamide], the IC50 – broadly, the point on the concentration scale where inhibition reaches its midpoint – in experiment [1] (setting [3]) worked out at 216 nM; in experiment [2] (setting [4]) it was 0.128 nM.
With `CC(C)CO[C@]1(CN2CCN3CCOC[C@@H]3C2)/C=C/C[C@H](C)[C@@H](C)S(=O)(=O)NC(=O)c2ccc3c(c2)N(C[C@@H]2CC[C@H]21)C[C@@]1(CCCc2cc(Cl)ccc21)CO3` [Example 356, (1S,3′R,6′R,7′R,8′E,11′S,12′R)-6-chloro-7′-((9aS)-hexahydropyrazino[2,1-c][1,4]oxazin-8(1H)-ylmethyl)-11′,12′-dimethyl-7′-(2-methylpropoxy)-3,4-dihydro-2H,15′H-spiro[naphthalene-1,22′-[20]oxa[13]thia[1,14]diazatetracyclo [14.7.2.0~3,6~.0~19,24~]pentacosa[8,16,18,24]tetraen]-15′-one 13′,13′-dioxide], the IC50 in experiment [1] (setting [5]) was found to be 367 nM; in experiment [2] (setting [6]), 0.11 nM.
For `CO[C@]1(CN2CCN3CCOC[C@@H]3C2)/C=C/C[C@H](C)[C@@H](CCO)S(=O)(=O)NC(=O)c2ccc3c(c2)N(C[C@@H]2CC[C@H]21)C[C@@]1(CCCc2cc(Cl)ccc21)CO3` [Example 357, (1S,3′R,6′R,7′R,8′E,11′S,12′R)-6-chloro-7′-((9aS)-hexahydropyrazino[2,1-c][1,4]oxazin-8(1H)-ylmethyl)-12′-(2-hydroxyethyl)-7′-methoxy-11′-methyl-3 ,4-dihydro-2H,15′H-spiro[naphthalene-1,22′-[20]oxa[13]thia[1,14]diazatetracyclo [14.7.2.0~3,6~.0~19,24~]pentacosa[8,16,18,24]tetraen]-15′-one 13′,13′-dioxide] the same measures were 118 nM and 0.067 nM.
As for `CO[C@]1(CC=O)/C=C/C[C@H](C)[C@@H](C)S(=O)(=O)NC(=O)c2ccc3c(c2)N(C[C@@H]2CC[C@H]21)C[C@@]1(CCCc2cc(Cl)ccc21)CO3` [Example 100322, ((1S,3′R,6′R,7′R,8′E,11′S,12′R)-6-chloro-7′-methoxy-11′,12′-dimethyl-13′,13′-dioxido-15′-oxo-3,4-dihydro-2H-spiro[naphthalene-1,22′-[20]oxa[13]thia[1,14]diazatetracyclo [14.7.2.0~3,6~.0~19,24~]pentacosa[8,16,18,24]tetraen]-7′-yl)acetaldehyde], the IC50 in experiment [1] (setting [3]) came out at 1540 nM; in experiment [2] (setting [4]), 2.23 nM.
For `C[C@@H]1[C@@H](C)C/C=C/[C@@](O)(CC=O)[C@@H]2CC[C@H]2CN2C[C@@]3(CCCc4cc(Cl)ccc43)COc3ccc(cc32)C(=O)NS1(=O)=O` [Example 100171, ((1S,3′R,6′R,7′S,8′E,11′S,12′R)-6-chloro-7′-hydroxy-11′,12′-dimethyl-13′,13′-dioxido-15′-oxo-3,4-dihydro-2H-spiro[naphthalene-1,22′-[20]oxa[13]thia[1,14]diazatetracyclo [14.7.2.0~3,6~.0~19,24~]pentacosa[8,16,18,24]tetraen]-7′-yl)acetaldehyde] the same measures were 868 nM and 0.578 nM.
Take `CCC[C@]1(O)/C=C/C[C@H](C)[C@@H](C)S(=O)(=O)NC(=O)c2ccc3c(c2)N(C[C@@H]2CC[C@H]21)C[C@@]1(CCCc2cc(Cl)ccc21)CO3` [Example 100232, (1S,3′R,6′R,7′S,8′E,11′S,12′R)-6-chloro-7′-hydroxy-11′,12′-dimethyl-7′-propyl-3,4-dihydro-2H,15′H-spiro[naphthalene-1,22′-[20]oxa[13]thia[1,14]diazatetracyclo [14.7.2.0~3,6~.0~19,24~]pentacosa[8,16,18,24]tetraen]-15′-one 13′,13′-dioxide]: the figures for the IC50 in experiment [1] (setting [3]) and in experiment [2] were 389 nM and 0.152 nM, respectively.
